Broadly, the chromatographic logP is a lipophilicity value derived from retention on a column.

The nature of the data set: logP determination by HPLC on a reverse-phase column (EEC Directive 79/831 Annex V.A8). The format is physicochemical. To be noted: reverse-phase HPLC column (C 18); acidic range pH 2.3; 0.1% aqueous phosphoric acid and acetonitrile, linear gradient 10% to 90% acetonitrile; C 18 column; 43° C. Here is the method: The logP values given in the Tables and Preparation Examples above are determined in accordance with EEC Directive 79/831 Annex V.A8 by HPLC (High Performance Liquid Chromatography) on a reverse-phase column (C 18). Temperature: 43° C. The determination is carried out in the acidic range at pH 2.3 using the mobile phases 0.1% aqueous phosphoric acid and acetonitrile; linear gradient from 10% acetonitrile to 90% acetonitrile. Calibration is carried out using unbranched alkan-2-ones (having 3 to 16 carbon atoms), with known logP values (determination of the logP values by the retention times using linear interpolation between two successive alkanones).
In turn, `O=C(Nc1ccsc1-c1ccc(Br)cn1)c1cccnc1Cl` [Example 1, N-[2-(5-bromopyridin-2-yl)-3-thienyl]-2-chloronicotinamide] returned a chromatographic logP of 2.25. In turn, `Nc1ccsc1-c1ccc(Br)cn1` [Example (III-1), 2-(5-bromopyridin-2-yl)thiophene-3-amine] had a chromatographic logP of 0.87. The compound `CC(C)(C)OC(=O)Nc1ccsc1-c1ccc(Br)cn1` [Example (III-a-1), tert-butyl[2-(5-bromopyridin-2-yl)-3-thienyl]carbamate] came in with a chromatographic logP of 3.27.

With `CC(C)(C)OC(=O)Nc1ccsc1I` [Example (VI-1), tert-butyl (2-iodo-3-thienyl)carbamate], the chromatographic logP is 2.43.

Values taken from US20110105564A1, “THIENYLPYRIDYLCARBOXAMIDES” (Bayer CropScience AG, priority 2005, published 2011).
